Test results taken from the NIST ThermoML archive (doi:10.1021/je0601457).
Numbers after ± are expanded uncertainties.

Assay: xn = mol fraction of the nth substance listed

Cc1cnccn1 [2-methylpyrazine] + O=C=O
Fluid (supercritical or subcritical phases), Linear displacement technique
Conditions	mass density [kg/m3]
294.85 K, 5860 kPa, x1 = 0.033	869 ± 35
294.85 K, 6830 kPa, x1 = 0.017	749 ± 36
294.85 K, 7760 kPa, x1 = 0.033	904 ± 38
294.85 K, 8900 kPa, x1 = 0.017	777 ± 37
294.85 K, 13000 kPa, x1 = 0.017	821 ± 33
294.85 K, 13690 kPa, x1 = 0.033	969 ± 44
294.95 K, 2450 kPa, x1 = 0.857	935 ± 37
294.95 K, 3790 kPa, x1 = 0.857	942 ± 38
294.95 K, 6860 kPa, x1 = 0.857	947 ± 38
294.95 K, 11520 kPa, x1 = 0.857	950 ± 38
295.05 K, 3900 kPa, x1 = 0.624	948 ± 38
295.05 K, 7000 kPa, x1 = 0.624	952 ± 38
295.05 K, 9660 kPa, x1 = 0.624	956 ± 38
295.05 K, 14760 kPa, x1 = 0.624	965 ± 39
295.35 K, 5310 kPa, x1 = 0.156	908 ± 36
295.35 K, 7620 kPa, x1 = 0.156	910 ± 36
295.35 K, 9620 kPa, x1 = 0.156	911 ± 37
295.45 K, 5450 kPa, x1 = 0.264	901 ± 36
295.45 K, 7900 kPa, x1 = 0.264	911 ± 36
295.45 K, 12450 kPa, x1 = 0.264	926 ± 37
295.45 K, 16590 kPa, x1 = 0.264	934 ± 37
295.55 K, 6790 kPa, x1 = 0.122	998 ± 40
295.55 K, 8790 kPa, x1 = 0.122	1010 ± 40
295.55 K, 10590 kPa, x1 = 0.122	1019 ± 41
295.55 K, 14410 kPa, x1 = 0.122	1036 ± 41
295.85 K, 7140 kPa, x1 = 0.081	779 ± 31
295.85 K, 9760 kPa, x1 = 0.081	781 ± 31
295.85 K, 13170 kPa, x1 = 0.081	781 ± 31
296.15 K, 7590 kPa, x1 = 0.339	964 ± 39
296.15 K, 10550 kPa, x1 = 0.339	969 ± 39
296.15 K, 16100 kPa, x1 = 0.339	976 ± 39
296.35 K, 6310 kPa, x1 = 0.023	607 ± 25
296.35 K, 6660 kPa, x1 = 0.023	614 ± 32
296.35 K, 8930 kPa, x1 = 0.023	642 ± 33
297.25 K, 5790 kPa, x1 = 0.062	854 ± 35
297.25 K, 7550 kPa, x1 = 0.062	873 ± 35
297.25 K, 9550 kPa, x1 = 0.062	894 ± 36
297.25 K, 12830 kPa, x1 = 0.062	914 ± 37
298.85 K, 6860 kPa, x1 = 0.039	804 ± 32
298.85 K, 8520 kPa, x1 = 0.039	831 ± 33
298.85 K, 11690 kPa, x1 = 0.039	873 ± 35
301.55 K, 7930 kPa, x1 = 0.023	578 ± 25
301.55 K, 10070 kPa, x1 = 0.023	604 ± 25
301.55 K, 11520 kPa, x1 = 0.023	620 ± 25
304.15 K, 6790 kPa, x1 = 0.156	795 ± 35
304.15 K, 8030 kPa, x1 = 0.156	905 ± 37
304.15 K, 10210 kPa, x1 = 0.156	906 ± 36
304.15 K, 12210 kPa, x1 = 0.156	911 ± 36
304.45 K, 7140 kPa, x1 = 0.091	913 ± 37
304.45 K, 7830 kPa, x1 = 0.122	970 ± 39
304.45 K, 8660 kPa, x1 = 0.091	927 ± 37
304.45 K, 10170 kPa, x1 = 0.091	940 ± 38
304.45 K, 10660 kPa, x1 = 0.122	989 ± 40
304.45 K, 13690 kPa, x1 = 0.122	1006 ± 40
304.55 K, 5690 kPa, x1 = 0.264	882 ± 36
304.55 K, 6660 kPa, x1 = 0.264	885 ± 35
304.55 K, 10380 kPa, x1 = 0.264	896 ± 36
304.55 K, 13620 kPa, x1 = 0.264	907 ± 37
305.05 K, 3620 kPa, x1 = 0.624	922 ± 37
305.05 K, 5000 kPa, x1 = 0.624	926 ± 37
305.05 K, 7480 kPa, x1 = 0.624	931 ± 37
305.05 K, 10860 kPa, x1 = 0.624	937 ± 37

Liquid, linear displacement
Conditions	mass density [kg/m3]
294.85 K, x1 = 0.017	721 ± 37
294.85 K, x1 = 0.033	864 ± 36
294.95 K, x1 = 0.857	930 ± 37
295.05 K, x1 = 0.624	944 ± 38
295.35 K, x1 = 0.156	906 ± 36
295.45 K, x1 = 0.264	883 ± 35
295.55 K, x1 = 0.122	947 ± 38
295.85 K, x1 = 0.081	779 ± 32
296.15 K, x1 = 0.339	928 ± 37
296.35 K, x1 = 0.023	599 ± 25
297.25 K, x1 = 0.062	845 ± 35
298.85 K, x1 = 0.039	787 ± 32
301.55 K, x1 = 0.023	549 ± 22
304.15 K, x1 = 0.156	901 ± 36
304.45 K, x1 = 0.091	901 ± 37
304.45 K, x1 = 0.122	954 ± 38
304.55 K, x1 = 0.264	881 ± 35
